Reference: patent US4115482A, “Stereospecific cis- and trans-vinylic phosphorus esters” (priority 1977, dated 1978)

Tests used:
[1] = molecular target: T1, bovine cholinesterase (Bos taurus, UniProt P23795); experiment: Cholesterinase placeholder; assay type: biochemical; details: for Cholinesterase IC50 (50% inhibiting concentration), after oxidation: after oxidation with peracetic acid in benzene (75°, 20 minutes) to the corresponding monothiophosphate, bovine cholinesterase, 35° C., 30 minutes
T1 construct: Ellman test with acetylthiocholine
T1 sequence (P23795 31-613): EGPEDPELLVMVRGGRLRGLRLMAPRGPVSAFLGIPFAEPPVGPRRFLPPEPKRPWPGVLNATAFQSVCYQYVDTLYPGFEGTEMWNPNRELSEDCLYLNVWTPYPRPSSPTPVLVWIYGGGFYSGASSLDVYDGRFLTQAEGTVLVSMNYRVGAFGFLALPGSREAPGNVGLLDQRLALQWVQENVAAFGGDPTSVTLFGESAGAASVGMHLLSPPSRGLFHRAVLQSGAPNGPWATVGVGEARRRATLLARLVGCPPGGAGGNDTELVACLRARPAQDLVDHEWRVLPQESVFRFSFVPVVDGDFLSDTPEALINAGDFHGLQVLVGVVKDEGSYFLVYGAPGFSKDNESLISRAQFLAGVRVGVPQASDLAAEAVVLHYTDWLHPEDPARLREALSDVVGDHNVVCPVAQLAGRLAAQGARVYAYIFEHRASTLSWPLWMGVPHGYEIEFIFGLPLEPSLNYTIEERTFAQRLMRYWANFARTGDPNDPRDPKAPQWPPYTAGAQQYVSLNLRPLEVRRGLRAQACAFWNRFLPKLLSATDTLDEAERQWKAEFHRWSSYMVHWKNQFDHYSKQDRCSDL
Experimental: The insecticidal effectiveness of organophosphorus compounds is generally attributed to their inhibition of the cholinesterase enzyme. This inhibiting potency is usually expressed as the concentration of the compound which will reduce the activity of the enzyme by 50%, i.e. […]. The […] values of several cis- and trans-S-propenyl dialkyl dithiophosphates were determined to estimate the relative insecticidal potential of the geometric isomer pairs.
Test Method: To a solution of 0.2 unit of bovine cholinesterase in 2.97 ml of a buffer solution containing 11.15 g of disodium hydrogen phosphate dodecahydrate and 1.81 g of potassium dihydrogen phosphate per liter of water, 0.03 ml of a solution of the dithiophosphate adduct in benzene was added. This mixture was then incubated in a water bath at 35° C. for 30 minutes. One ml of a solution containing 100 mg of 5,5'-dithiobis-(2-nitrobenzoic acid), 100 mg of acetylthiocholine iodide, and 75 ml of the above buffer solution in sufficient water to make 200 ml was then added and the mixture again incubated in a water bath at 35° C. for 30 minutes more. The amount of inhibition of bovine cholinesterase was then determined from the absorbance of this solution at 420 millimicrons. By using a series of solutions of the test chemical at various concentrations in acetone, the concentration needed for 50% inhibition was determined.
The oxidation was carried out with peracetic acid in benzene solution at 75° for 20 minutes. After the removal of the excess peracetic acid, the benzene solution was used for enzyme inhibition as described above.
The median inhibiting concentrations for the cis- and trans-S-propenyl dimethyl and diethyl dithiophosphates are listed in Table II. Data on S-vinyl dimethyl dithiophosphate are also tabulated for comparison.

[2] = tested on: two spotted spider mite; experiment: Systemic miticidal action on potted bean plants (soil treatment); assay type: in vivo; details: 20 ml of aqueous emulsion containing 0.05% of the chemical applied to soil, 5 days
Experimental: For this purpose, a systemic pesticide test on mites was chosen as an example.
Test Method: Potted bean plants were infested with the two spotted spider mite. The soil in the pots was then treated by applying 20 ml of aqueous emulsion containing 0.05% of the chemical. The emulsions were prepared by dissolving the cis- and the trans-compound in acetone and dispersing it in distilled water with Triton X-100. (The emulsifier is an alkylaryl polyether alcohol derived from nonylphenol and ethylene oxide). After the application of the test emulsion, the plants were held for 5 days and then the degree of mite control was rated.

Structure (SMILES)	Cholinesterase IC50 (50% inhibiting concentration), after oxidation [1]	degree of mite control (systemic) [2]	cholinesterase inhibition, comparison in words ([1]; relative inhibiting potency of isomers, oxidized forms and S-vinyl analog)
CC=CSP(=S)(OCC)OCC	4.4e-06 mol/L	–	–
C/C=C/SP(=S)(OCC)OCC [Example 1, trans-S-Propenyl O,O'-Diethyl Dithiophosphate]	1.6e-07 mol/L	–	–
C/C=C\SP(=S)(OCC)OCC [Example 2, cis-Propenyl O,O'-Diethyl Dithiophosphate]	0.00018 mol/L	–	–
C/C=C\SP(=S)(OC)OC [Example 3, cis-Propenyl O,O'-Dimethyl Dithiophosphate]	4.1e-05 mol/L	there were live mites and their nymphs	–
C/C=C/SP(=S)(OC)OC [Example 4, trans-S-Propenyl O,O'-Dimethyl Dithiophosphate]	2.8e-08 mol/L	completely free from mites and nymphs	the substitution of the trans-vinylic hydrogen by a methyl group increases the insecticidal potential
C=CSP(=S)(OC)OC [Reference, S-vinyl dimethyl dithiophosphate, reference compound]	3.1 × 10^ -6 mole/liter	–	–
